In article PMC4536136 (Bioorganic & medicinal chemistry, 2015):

Legend:
[1] = biological target: intracellular Leishmania donovani strain MHOM/ET/67/L82 β-lactamase expressing parasites; conditions: cited from earlier work; for EC50: read-out: L. donovani EC50, ref Van Horn et al.[18]
L. donovani = conditions: 15 mg/kg/day for five days, ip; cited from earlier work
[2] = Pharmacokinetic analysis after ip administration in mice; assay type: in vivo; conditions: for Kp / concentration at 4 h / concentration at 12 h: Swiss Webster, mouse, ip, 10 mg/kg; for Kp: liver and spleen (versus plasma)
BALB/c mice = test: Toxicity to BALB/c mice; assay type: in vivo

| Compound | EC50 [1] [nM] | Kp [2] | concentration at 4 h ([2]; liver) [µM] | concentration at 12 h ([2]; liver) [µM] | concentration at 4 h ([2]; spleen) [µM] | concentration at 12 h ([2]; spleen) [µM] | toxicity to BALB/c mice (BALB/c mice; 10 mg/kg/day × 5, ip) | toxicity to BALB/c mice (BALB/c mice; 30 mg/kg/day × 5, ip) | other results |
| --- | --- | --- | --- | --- | --- | --- | --- | --- | --- |
| c1ccc(CNc2nc(NCc3ccccc3)c3ccccc3n2)cc1 [Compound 1, N^2,N^4-dibenzylquinazoline-2,4-diamine] | 670 ± 270 |  |  |  |  |  |  |  |  |
| CNc1nc(NCc2ccccc2)nc2ccccc12 [Compound 2, N^2-benzyl-N^4-methylquinazoline-2,4-diamine] | 150 ± 20 |  |  |  |  |  |  |  |  |
| CC(C)Nc1nc(NCc2ccco2)c2ccccc2n1 [Compound 3] | 2500 ± 400 |  |  |  |  |  |  |  |  |
| Cc1ccc2c(NCc3ccco3)nc(NC(C)C)nc2c1 [Compound 4, N^4-(furan-2-ylmethyl)-N^2-isopropyl-7-methylquinazoline-2,4-diamine] |  |  |  |  |  |  |  |  | L. donovani EC50 ([1]; ref Van Horn et al.[18]): submicromolar; activity in L. donovani-infected mice (L. donovani): promising activity |
| Clc1ccc(CNc2nc(NCc3ccccc3)c3ccccc3n2)cc1 [Compound 15, N^4-benzyl-N^2-(4-chlorobenzyl)quinazoline-2,4-diamine] |  | 20 to 21 | 25.3 | 25.3 | 26.6 | 26.6 | no apparent adverse effects | toxic | plasma AUC relative to 40 after adjusting for dose ([2]; 10 mg/kg ip, mice): 2.8 fold |
| CC(C)Nc1nc(NCc2ccccc2)nc2ccccc12 [Compound 40, N^2-benzyl-N^4-isopropylquinazoline-2,4-diamine] |  | 3.2 to 16 | 20.2 | 20.2 | 16.5 | 16.5 | no apparent adverse effects | toxic |  |
